Reference: patent US10029986B2, “Alkynyl pyridine-substituted amide compound and pesticide” (NISSAN CHEMICAL INDUSTRIES, LTD., priority 2014, dated 2018)

How the values were obtained:
[1] = system: Southern root-knot nematode (Meloidogyne incoqnita); assay: Insecticidal test against Southern root-knot nematode (eggs, 96 well plate); format: in vivo; conditions: 96 h, test solution B 100 ppm, 10 μl per well, 25° C. dark, 4 days after treatment, read-out: efficacy (unhatched eggs + inactive larvae relative to non-treated)
Procedure: Compounds of the present invention were dissolved in dimethyl sulfoxide to prepare 1 wt % solutions. Then, distilled water was added to dilute the solutions to the prescribed concentration (100 ppm), and the obtained solutions were used in the following the Test Examples 9 to 12. 60 μl of a potato dextrose 1% agar medium was added to each well of a 96 well plate, and 30 μl of sterilized water containing eggs of Southern root-knot nematode (Meloidogyne incoqnita) (10 eggs/3 μl) was added to each well. Further, 10 μl per well of test solution B of the compounds of the present invention was added, and the plate was left at rest at 25° C. under dark conditions.

Botrytis cinerea = assay: Test on the preventive effect against cucumber gray mold (spore inoculation); format: in vivo; conditions: 72 h, test solution A 500 ppm, 5 ml per pot, cucumber cut leaves, conidium inoculation, 3 days at 20° C.
Procedure: Compounds of the present invention were dissolved in a solvent for emulsion (a mixture of Sorpol (registered trademark) 3005XL (manufactured by Toho Chemical Industry Co., Ltd.): N-methylpyrrolidone: Solvesso (registered trademark) 200 (manufactured by ExxonMobil Chemical) in a ratio of 1:5:2) to prepare 20 wt % emulsifiable concentrates. Then, distilled water was added to dilute the emulsifiable concentrates to the prescribed concentration (500 ppm), and the obtained solutions were used in the following the Test Examples 1 to 8. Cucumber (varieties: Sagami Hanjiro) was seeded in 90 cm^3 plastic pot, and at the cotyledon stage, 5 ml per pot of test solution A of the compounds of the present invention was applied. After drying in air, the treated leaves were cut and transferred in plastic containers. 30 μl of a mixture of a suspension of conidium of Botrytis cinerea and a dissolved PDA medium in a ratio of 1:1 was dropped on each treated leaf and inoculated. After the inoculation, the plastic containers were placed in 20° C. with humid conditions for 3 days, and the proportion of the formed lesion in the inoculated leaves were counted to calculate the control value in accordance with the same formula as in the Test Example 1. The test was carried out in duplicate.

[2] = system: Erysiphe polygoni (synonym: Erysiphe betae); assay: Test on the preventive effect against cucumber powdery mildew; format: in vivo; conditions: 216 h, test solution A 500 ppm, 5 ml per pot sprayed, cucumber cotyledon stage, 9 days after inoculation
Procedure: Compounds of the present invention were dissolved in a solvent for emulsion (a mixture of Sorpol (registered trademark) 3005XL (manufactured by Toho Chemical Industry Co., Ltd.): N-methylpyrrolidone: Solvesso (registered trademark) 200 (manufactured by ExxonMobil Chemical) in a ratio of 1:5:2) to prepare 20 wt % emulsifiable concentrates. Then, distilled water was added to dilute the emulsifiable concentrates to the prescribed concentration (500 ppm), and the obtained solutions were used in the following the Test Examples 1 to 8. Cucumber (varieties: Sagami Hanjiro) was seeded in 90 cm^3 plastic pot, and at the cotyledon stage, 5 ml per pot of test solution A of the compounds of the present invention was sprayed. After drying in air, the pot was placed in an air-conditioned greenhouse (20° C.), and a suspension of conidium of Erysiphe polygoni (synonym: Erysiphe betae) was sprayed. After the pot were replaced at the same temperature for 9 days, the proportion of the formed lesion in the inoculated leaves were counted to calculate the control value in accordance with the following formula. The test was carried out in duplicate. Control value=[1−(lesion area ratio in treated plot/lesion are a ratio in non-treated plot)]×100

[3] = system: Southern root-knot nematode (Meloidogyne incognita); assay: Test on the preventive effect against Southern root-knot nematode (garden balsam seedlings); format: in vivo; conditions: 504 h, test solution B 100 ppm, 1 ml per seedling to base of garden balsam seedlings, 3 weeks in greenhouse, read-out: efficacy (root knot damage degree relative to non-treated plot)
Procedure: Compounds of the present invention were dissolved in dimethyl sulfoxide to prepare 1 wt % solutions. Then, distilled water was added to dilute the solutions to the prescribed concentration (100 ppm), and the obtained solutions were used in the following the Test Examples 9 to 12. 1 ml per seedling of test solution B of the compounds of the present invention was treated to the bases of garden balsam seedlings (about 2 weeks after budding) planted in a cell tray of which each cell was filled with 10 g of soil. 1 hour after the application, 1 ml per cell of water containing Southern root-knot nematode (Meloidogyne incognita) 2 L larvae (100 larvae of 2 L/1 ml) was applied to the base. The tray was placed in a greenhouse for 3 weeks, and the degree of root knot on the root was determined in accordance with the following damage index and the damage degree to calculate the efficacy (%) relative to the non-treated plot in accordance with the following formula. • 0: No knot formation was observed. • 1: Knot formations were observed on parts of the root system. • 2: Knot formations were observed on the entire root system. • 3: Large knot formations were observed. • 4: Large knot formations were observed on the entire root system. [Damage degree]=[Σ(damage index×number of each damaged indexed seedling)/(4×number of seedlings investigated)]×100 Efficacy (%)=[1−(damage degree in treated plot/damage degree in non-treated plot)]×100

melting point [°C]	SMILES	pest or weed control at 100 µg/mL [1] [%]	pest or weed control at 500 µg/mL (Botrytis cinerea) [%]	pest or weed control at 500 µg/mL [2] [%]	pest or weed control at 100 µg/mL [3] [%]
–	CC(C)(CNC(=O)c1cccnc1C(F)F)c1ncc(C#CC2CC2)cc1Cl [3-007, N-[2-[3-chloro-5-(cyclopropylethynyl)pyridin-2-yl]-2-methylpropyl]-2-(difluoromethyl)nicotinamide]	≥ 50	≥ 70	≥ 70	–
–	CC(CNC(=O)c1cn(C)nc1C(F)F)c1ncc(C#CC2CC2)cc1Cl (centres unmarked) [8-007]	≥ 50	≥ 70	≥ 70	≥ 50
–	Cn1cc(C(=O)NCC(C)(C)c2ncc(C#CC3CC3)cc2Cl)c(C(F)F)n1 [8-008]	≥ 50	≥ 70	≥ 70	–
–	COC(c1ncc(C#CC2CC2)cc1Cl)C(C)NC(=O)c1cn(C)nc1C(F)F (centres unmarked) [8-028, N-[2-[3-chloro-5-(cyclopropylethynyl)pyridin-2-yl]-2-methoxy-1-methylethyl]-3-difluoromethyl-1-methyl-1H-pyrazole-4-carboxamide]	≥ 50	≥ 70	≥ 70	≥ 50
–	Cn1cc(C(=O)NCC2(c3ncc(C#CC4CC4)cc3Cl)CC2)c(C(F)F)n1 [8-018, N-[[1-[3-chloro-5-(cyclopropylethynyl)pyridin-2-yl]cyclopropyl]methyl]-3-difluoromethyl-1-methyl-1H-pyrazole-4-carboxamide]	≥ 50	≥ 70	≥ 70	–
90 to 92	CC(C)(C)C#Cc1cnc(CCNC(=O)c2ccccc2C(F)(F)F)c(Cl)c1 [1-003, N-[2-[3-chloro-5-(3,3-dimethyl-1-butynyl)pyridin-2-yl]ethyl]-2-(trifluoromethyl)benzamide]	≥ 50	≥ 70	≥ 70	≥ 50
114 to 117	O=C(NCCc1ncc(C#CC2CC2)cc1Cl)c1cccnc1C(F)F [3-001, N-[2-[3-chloro-5-(cyclopropylethynyl)pyridin-2-yl]ethyl]-2-(difluoromethyl)nicotinamide]	≥ 50	≥ 70	≥ 70	≥ 50
–	CC(C)(CNC(=O)c1ccccc1C(F)(F)F)c1ncc(C#CC2CC2)cc1Cl [1-008]	≥ 50	≥ 70	≥ 70	–
85 to 90	C=C(CNC(=O)c1ccccc1C(F)(F)F)c1ncc(C#CC)cc1Cl [1-012, N-[2-[3-chloro-5-(1-propynyl)pyridin-2-yl]-2-propenyl]-2-(trifluoromethyl)benzamide]	≥ 50	≥ 70	≥ 70	≥ 50
–	COC(=O)C(CNC(=O)c1cn(C)nc1C(F)F)c1ncc(C#CC2CC2)cc1Cl (centres unmarked) [8-022, 2-[3-chloro-5-(cyclopropylethynyl)pyridin-2-yl]-3-(3-difluoromethyl-1-methyl-1H-pyrazole-4-carboxamide)propionic acid methyl ester]	–	≥ 70	≥ 70	–
36 to 38	COC(c1ncc(C#CC(C)(C)C)cc1Cl)C(C)NC(=O)c1ccccc1C(F)(F)F (centres unmarked) [1-025]	≥ 50	≥ 70	≥ 70	≥ 50
–	CSC(CNC(=O)c1ccccc1C(F)(F)F)c1ncc(C#CC2CC2)cc1Cl (centres unmarked) [1-021]	≥ 50	≥ 70	≥ 70	–
–	COC(c1ncc(C#CC2CC2)cc1Cl)C(C)NC(=O)c1nccnc1C(F)(F)F (centres unmarked) [4-004]	–	≥ 70	≥ 70	–
–	CC(CNC(=O)c1cccnc1Cl)c1ncc(C#CC2CC2)cc1Cl (centres unmarked) [3-005]	≥ 50	≥ 70	≥ 70	≥ 50
–	COC(c1ncc(C#CC2CC2)cc1Cl)C(C)NC(=O)c1ccccc1C(F)(F)F (centres unmarked) [1-024]	≥ 50	≥ 70	≥ 70	≥ 50
–	CC(CNC(=O)c1ccccc1C(F)(F)F)c1ncc(C#CC2CC2)cc1Cl (centres unmarked) [1-007, N-[2-[3-chloro-5-(cyclopropylethynyl)pyridin-2-yl]propyl]-2-(trifluoromethyl)benzamide]	≥ 50	≥ 70	≥ 70	≥ 50
110 to 111	COC(CNC(=O)c1cn(C)nc1C(F)F)c1ncc(C#CC2CC2)cc1Cl (centres unmarked) [8-019]	≥ 50	≥ 70	≥ 70	≥ 50
–	Cn1cc(C(=O)NCCc2ncc(C#CC(C)(C)C)cc2Cl)c(C(F)F)n1 [8-002]	–	≥ 70	≥ 70	≥ 50
–	CC(NC(=O)c1ccccc1C(F)(F)F)C(OCc1ccccc1)c1ncc(C#CC2CC2)cc1Cl (centres unmarked) [1-031, N-[2-benzyloxy-2-[3-chloro-5-(cyclopropylethynyl)pyridin-2-yl]-1-methylethyl]-2-(trifluoromethyl)benzamide]	≥ 50	≥ 70	≥ 70	–
66 to 70	C=C(CNC(=O)c1cn(C)nc1C(F)F)c1ncc(C#CC2CC2)cc1Cl [8-011, N-[2-[3-chloro-5-(cyclopropylethynyl)pyridin-2-yl]-2-propenyl]-3-difluoromethyl-1-methyl-1H-pyrazole-4-carboxamide]	≥ 50	≥ 70	≥ 70	–
–	COC(c1ncc(C#CC2CC2)cc1Cl)C(C)NC(=O)c1sc(C)nc1C(F)F (centres unmarked) [9-006a]	≥ 50	≥ 70	≥ 70	≥ 50
–	COC(c1ncc(C#CC2CC2)cc1Cl)C(C)NC(=O)c1cccnc1C(F)F (centres unmarked) [3-021]	≥ 50	≥ 70	≥ 70	≥ 50
–	O=C(NCC(c1ncc(C#CC2CC2)cc1Cl)C1CC1)c1ccccc1C(F)(F)F (centres unmarked) [1-009]	≥ 50	≥ 70	≥ 70	≥ 50
